B1: Rac39: racemase (SEQ ID NO:2) with C-terminal His tag, expressed in E. coli, converts (2S,4R)Monatin into (2R,4R)Monatin (protein)
chain: MAETNLHKKINIEMHFDNLVSNFEKIRKLNNENVDVADKVIPVVKANAYNFGVYDITKTFLSMKEPQTKFFVFSLEEGIELRKFFPSIERIFVIMGALENDAELFKKYNLTPVVNSFYQLEVCKKHNIKNIVLQFNTGMNRNGFEVKELRKVKQICDSEKFNVLMVMSHFACSDNMASEVNAYQINEYKKVARVFNDKKIIKSFPATFGILNFNTINGLVNSFRPGRLYYGFLPKEGYDKNLFSVYVYLSKDKEGNIILPFGKEDGIDYGEQAYILVDKNKAYVKQVDSHKVILDTNDKTLVGKKVYLIKNGMGYDEFKEQSKQDLLTFFGKIFKNCDKNKNLCNINATRKRAKKDNKFVPKAIFKKDAKGQYTQYTTTLFEKREVSADGIVGYDATRAVKKGDKLGVIFNGHMDGFYQPMSNKHVFVYVKNKYKQLIPCEFYGLISSDQAVIKIPNDEFDNIEYGAKVVVFDKNHPITLFEQATGVSRDELFYGLDKTYRIAEQK
modifications: C-terminal His tag; Obtained from environmental sample

Legend:
[1] = Patent Literature 1; cited from earlier work
[2] = Measurement of solubility of Monatin metal salt in water; format: physicochemical; conditions: 1 g salt added to 1 g water, stirred at 25° C., filtrate analyzed by HPLC
Experimental: Solubility of a (2S,4R)Monatin potassium salt and a (2R,4R)Monatin potassium salt in water (H2O) was measured. 1 g of the (2S,4R)Monatin potassium salt or 1 g of the (2R,4R)Monatin potassium salt was added to 1 g of the water, the mixture was stirred at 25° C., a slurry was filtrated out, and the resulting filtrate was analyzed by HPLC. […] The solubility of the (2R,4R)Monatin potassium salt was higher than the solubility of the (2S,4R)Monatin potassium salt.
Then, Solubility of a (2S,4R)Monatin magnesium salt and a (2R,4R)Monatin magnesium salt in the water was measured. The solubility was measured in the same manner as above. For the (2S,4R)Monatin magnesium salt, firstly, the same amount of magnesium chloride was added to the (2S, 4R)Monatin potassium salt, and then ethanol was further added thereto. Then, the resulting slurry was filtrated and the wet crystal was dried under reduced pressure to prepare the (2S,4R)Monatin magnesium salt. For the (2R, 4R)Monatin magnesium salt, firstly, the same amount of magnesium chloride was added to the (2R,4R)Monatin potassium salt, and then methanol was further added thereto. Then, the resulting slurry was filtrated and the wet crystal was dried under reduced pressure to prepare the (2R, 4R)Monatin magnesium salt.

[3] = Isomerization reaction using (2S,4R)Monatin or (2R,4R)Monatin as substrate with purified racemase; format: biochemical; conditions: 50 μM PLP, 100 mM Tris-HCl (pH 8.0), 0.72 mg/mL enzyme, 25° C., 15 minutes, 1 U = 1 μmol Monatin isomerized per minute
Experimental: A reaction was carried out for 15 minutes using the purified racemase under the following condition. The reaction was carried out in 0.1 mL using an Eppendorf tube. After the reaction was terminated, an equal amount of a reaction stopping solution, 200 mM sodium citrate solution (pH 4.5) was added to the sample. HPLC was used for the analysis.
Reaction condition: 20 mM (2S,4R)Monatin or (2R,4R)Monatin, 50 μM PLP, 100 mM Tris-HCl (pH 8.0), 0.72 mg/mL racemase purified enzyme, 25° C., 120 rpm.
The (2S,4R)Monatin and the (2R,4R)Monatin were quantified by HPLC analysis. An analysis condition is as shown below.
Mobile phase: 20 mM KH2PO4/acetonitrile=100/5 Flow rate: 1.0 mL/minute Column temperature: 40° C.

| Molecule | solubility in water [2] | also measured |
| --- | --- | --- |
| N[C@@H](C[C@@](O)(Cc1c[nH]c2ccccc12)C(=O)O)C(=O)O (single isomer, unassigned) [(2S,4S) isomer of 4-hydroxy-4-(3-indolylmethyl)-2-aminoglutaric acid] | – | sweetness compared with sucrose [1]: several hundreds times sweeter than sucrose |
| N[C@H](C[C@](O)(Cc1c[nH]c2ccccc12)C(=O)O)C(=O)[O-].N[C@H](C[C@](O)(Cc1c[nH]c2ccccc12)C(=O)O)C(=O)[O-].[Mg+2] [(2R,4R)Monatin magnesium salt] | 1.6 % by weight | – |
| N[C@H](C[C@](O)(Cc1c[nH]c2ccccc12)C(=O)O)C(=O)[O-].[K+] [(2R,4R)Monatin potassium salt] | 37.8 % by weight | – |
| N[C@@H](C[C@](O)(Cc1c[nH]c2ccccc12)C(=O)O)C(=O)[O-].N[C@@H](C[C@](O)(Cc1c[nH]c2ccccc12)C(=O)O)C(=O)[O-].[Mg+2] [(2S,4R)Monatin magnesium salt] | 14.5 % by weight | – |
| N[C@@H](C[C@](O)(Cc1c[nH]c2ccccc12)C(=O)O)C(=O)[O-].[K+] [(2S,4R)Monatin potassium salt] | 20.1 % by weight | – |
| B1 | – | activity to form the (2S,4R)Monatin from the (2R,4R)Monatin ([3]; 20 mM (2R,4R)Monatin): 0.09 U/mg; activity to form the (2R,4R)Monatin from the (2S,4R)Monatin ([3]; 20 mM (2S,4R)Monatin): 0.14 U/mg |
